We go through 58 compounds from the METLIN SMRT retention time set (Domingo-Almenara et al. 2019).

A short description of this series: gradient 5% acetonitrile 3 min, to 50% in 2 min, to 85% in 15 min, held 3 min, 100 µL/min. As to conditions: column: Zorbax Extend-C18 2.1 x 50 mm; eluents: water / acetonitrile, 0.1% formic acid. The essentials:
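Pure standards were run in mixtures of ~100 molecules by HPLC coupled to a quadrupole time-of-flight mass spectrometer. The column was a Zorbax Extend-C18 (2.1 × 50 mm, 1.8 μm) at 100 μL/min, with water and acetonitrile each containing 0.1% formic acid, in positive and negative ionization mode. Dead and dwell volumes were 40 μL and 900 μL. Retention time was taken from computationally picked adduct peaks, each manually inspected, with data collected over 3 months.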
Compound `CCc1cc(=O)n(CC(=O)N(CC)c2ccccc2)c(N2CCOCC2)n1` registered an RP-LC retention time of 747 s.

As to `CC1CCCN(C(=O)c2cn(-c3cc(-c4nc(C5CC5)no4)ccn3)cn2)C1` (stereo not drawn), the RP-LC retention time amounted to 887 s.

`O=C1c2c(O)cc(O)cc2OC(c2ccc(O)c(O)c2)C1O` (stereo not drawn) had an RP-LC retention time of 687 s.

In turn, `Cc1nn(CCCC(=O)Nc2cccc(F)c2)c(=O)c2nn(-c3ccccc3)c(C)c12` had an RP-LC retention time of 709 s.

Regarding `CCc1ccc(S(=O)(=O)N2C[C@@H]3C(=O)N(C(CC)c4cccs4)C(=O)[C@@H]3C2)cc1` (stereo partly drawn), the RP-LC retention time was 1070 s.

In turn, `O=C(NCc1cc(F)cc(F)c1)C1CCN(c2nnc(-c3ccccc3)o2)CC1` displayed an RP-LC retention time of 844 s.

`COc1cccc(CNC2=NCCNC23CCN(S(=O)(=O)c2ccc(C(C)(C)C)cc2)CC3)c1` displayed an RP-LC retention time of 837 s.

In turn, `COc1cc2c(Oc3ccc(NC(=O)C4(C(=O)Nc5ccc(F)cc5)CC4)cc3F)ccnc2cc1OCCCN1CCOCC1` displayed an RP-LC retention time of 670 s.

`Cc1sc2ccn(CC(C)C)c(=O)c2c1C(=O)NCc1ccc(N(C)C)cc1` displayed an RP-LC retention time of 652 s.

The compound `CCc1ccc(NC(=O)N2CCN(CCn3c(CC)nc4cccnc43)CC2)cc1` displayed an RP-LC retention time of 632 s.

`Cc1cc(C)cc(NC(=O)Cn2nc3c4cc(F)ccc4ncn3c2=O)c1` showed an RP-LC retention time of 752 s.

Compound `CC(C)CC(=O)NCC1Cn2cccc2C(=O)N1C` (stereo not drawn) came in with an RP-LC retention time of 620 s.

In turn, `CN(Cc1cc(Cl)ccc1F)C1CCc2nnc(C3CCOCC3)n2CC1` (stereo not drawn) showed an RP-LC retention time of 592 s.

For `CCCN1C(=O)c2ccccc2C(C(=O)NC2CCCCC2)C1c1cc(OC)c(OC)c(OC)c1` (stereo not drawn), the RP-LC retention time was found to be 838 s.

On to `CC(=O)c1ccc(NS(=O)(=O)c2ccc3ccccc3c2)cc1`, for which the RP-LC retention time was determined as 822 s.

For `CCCN(CC(=O)N(Cc1ccco1)CC1CCCO1)C(=O)c1ccccc1OC` (stereo not drawn), the RP-LC retention time is 870 s.

In the case of `CCC(=O)N1CCC(C(=O)Nc2ccc(S(=O)(=O)N3CCCC3)cc2)CC1`, the RP-LC retention time was found to be 697 s.

Regarding `COc1ccccc1-c1nc(-c2ccc(S(=O)(=O)N3CCC(C(=O)N4CCCC4)CC3)cc2)no1`, the RP-LC retention time was found to be 952 s.

`O=C(Cc1csc(-c2c(Cl)cccc2Cl)n1)NCCc1c[nH]c2ccccc12` showed an RP-LC retention time of 925 s.

`CCCN(C(=O)CC)c1nc(-c2ccc(C)cc2)cs1` showed an RP-LC retention time of 1330 s.

In turn, `O=C(CCC1CCN(c2cc(NC3CC3)ncn2)CC1)NCc1cccc(Cl)c1` displayed an RP-LC retention time of 680 s.

As to `Cc1cc(F)ccc1NS(=O)(=O)c1cc(-c2nc(C(C)(C)C)cs2)cs1`, the RP-LC retention time came out at 1260 s.

On to `COc1cc(-n2c(=O)c3ccccc3n(Cc3ccccc3C#N)c2=O)cc(OC)c1OC`, for which the RP-LC retention time was 805 s.

`CCCN1C(=O)c2c(C(=O)NCCCc3ccccc3)ncn2CC1(C)C(=O)NC1CCCC1` (stereo not drawn) had an RP-LC retention time of 867 s.

In turn, `COc1ccc(NC(=O)C2CC(=O)N(c3n[nH]c4cccc(F)c34)C2)cc1` (stereo not drawn) showed an RP-LC retention time of 717 s.

As to `Cc1cc(=O)n(CC(=O)Nc2cc(F)ccc2F)c(-c2ccc(F)cc2)n1`, the RP-LC retention time came out at 1090 s.

`COc1ccc(Nc2nc(N(C)C)nc3nccnc23)cc1` displayed an RP-LC retention time of 563 s.

As for `CCOC(=O)N1CCN(C(=O)Cn2c(-c3cccn(C)c3=O)nc3ccccc32)CC1`, the RP-LC retention time is 553 s.

As to `CC(=O)Nc1ccc(Cc2nc(-c3cccc(-c4ccn[nH]4)c3)no2)cc1`, the RP-LC retention time was found to be 798 s.

Regarding `CC1CCCN(C(=O)c2cc3c(s2)N(C)CCC3)C1` (stereo not drawn), the RP-LC retention time was determined as 976 s.

As for `COc1ccc(-c2nc3cc(C)ccc3o2)cc1NC(=O)NCc1ccco1`, the RP-LC retention time is 1010 s.

The compound `CC1CN(Cc2nc3c(c(=O)n(C)c(=O)n3C)n2Cc2ccccc2Cl)CC(C)O1` (stereo not drawn) showed an RP-LC retention time of 751 s.

On to `COc1cc(N2CCN(S(=O)(=O)c3ccccc3F)CC2)nc(OC)n1`, for which the RP-LC retention time came to 816 s.

In turn, `Nc1nc(N2CCc3ccccc3C2)ncc1C(=O)NCc1ccccc1` gave an RP-LC retention time of 737 s.

`Cc1sc(-c2nnc(C(=O)N3CCCC3)o2)cc1S(=O)(=O)N1CCN(C)CC1`: the RP-LC retention time was found to be 607 s.

For `Cc1nn(CCCC(=O)N2CCOCC2)c(=O)c2nn(-c3ccccc3)c(C)c12`, the RP-LC retention time is 673 s.

`COc1cc(OC)cc(C(=O)Nc2nc(-c3ccc4c(c3)NC(=O)C(C)O4)cs2)c1` (stereo not drawn) came in with an RP-LC retention time of 940 s.

`Cc1ccccc1NS(=O)(=O)c1cc2n(c1)CCN(C(C)C)C2=O` had an RP-LC retention time of 758 s.

With `CN(CCc1noc(-c2ccc(C(=O)N3CCOCC3)cc2)n1)C(=O)C1CCCCC1`, the RP-LC retention time was 752 s.

As for `COc1ccc(-c2noc(C(C)NC(C)=O)n2)cc1` (stereo not drawn), the RP-LC retention time worked out at 680 s.

`CCc1nc2cc(-c3noc(C(C)NC(=O)c4ccccc4)n3)ccc2o1` (stereo not drawn) registered an RP-LC retention time of 916 s.

`CCCCN1CCN(C(=O)c2ccc3c(c2)nc2n3CCN(C3CCCCC3)C2=O)CC1` came in with an RP-LC retention time of 618 s.

`CCC1CCCCN1C(=O)c1cnc2nc(C)ccc2c1Nc1ccc(C)c(C)c1` (stereo not drawn) yielded an RP-LC retention time of 702 s.

On to `CN(C(=O)C1CCCN(c2ncnc3c2nc2n3CCCCC2)C1)c1ccccc1F` (stereo not drawn), for which the RP-LC retention time was determined as 785 s.

In the case of `CN1CCN(Cc2nn(C)c3c2CN(S(=O)(=O)c2ccc(F)c(Cl)c2)CC3)CC1`, the RP-LC retention time turned out to be 622 s.

`Cc1nn2c(CNS(=O)(=O)c3cccc(Cl)c3)c(-c3ccccc3)nc2s1` gave an RP-LC retention time of 916 s.

`O=C(N[C@H]1C[C@@H]2C[C@H]1N(C(=O)c1ccccc1Cl)C2)c1cccnc1` came in with an RP-LC retention time of 602 s.

`CCCCN1CCN(C(=O)CN2CCN(Cc3ccccc3)C2=O)CC1` displayed an RP-LC retention time of 589 s.

The compound `COc1ccc(-c2cc3n(n2)CCCN(C(=O)CCC(=O)c2ccc(F)cc2)C3)cc1` yielded an RP-LC retention time of 879 s.

As to `O=C(Nc1ccc2ccccc2c1)c1ccc(Cl)cc1Cl`, the RP-LC retention time was determined as 1130 s.

In turn, `CCc1nc2cc(-c3noc(-c4sccc4C)n3)ccc2o1` yielded an RP-LC retention time of 1210 s.

For the compound `Cc1ccc(S(=O)(=O)Nc2ccc3c(c2)CCC(=O)N3CC(C)C)cc1C`, the RP-LC retention time came to 939 s.

For `COc1ccc(C(=O)N2CCC(COc3ccc(C(=O)NC4CC4)cc3)CC2)cc1F`, the RP-LC retention time was found to be 798 s.

Consider `Cc1cccc(N2CCN(S(=O)(=O)c3cc(-c4nnc(C5CCC5)o4)co3)CC2)c1`, for which the RP-LC retention time came out at 1110 s.

Turning to `Cc1cccc(NC(=O)C2CCN(S(=O)(=O)c3ccc4c(c3)sc(=O)n4C)CC2)c1`, the RP-LC retention time is 910 s.

`Brc1cccc(-c2nc3ccccn3c2Nc2ccc3c(c2)OCO3)c1` had an RP-LC retention time of 726 s.

`O=C(NCc1ccc(F)c(Cl)c1)C1CCCN(c2nccnc2Sc2ccccc2)C1` (stereo not drawn) gave an RP-LC retention time of 1100 s.

In turn, `CC(=O)Nc1ccc(OCC(=O)NCc2cc(F)cc(F)c2)nc1` yielded an RP-LC retention time of 672 s.
